# In patent publication US9783545B2, “Pyrazolopyridazines and methods for treating retinal-degenerative diseases and hearing loss associated with usher syndrome” (Usher III Initiative, Inc., priority 2012, dated 2017):
# Tests used:
# [1] = target: T1, N48K Clarin-1 (Homo sapiens, UniProt P58418, N48K); test: Restoration of expression of N48K Clarin-1, 24 hour incubation (high content imaging of HA-tagged N48K Clarin-1); type: cell-based; conditions: HEK293-Clarin-1 N48K-HA D9 cell line, 24 hr incubation with compound; read-out: IC50 (the source's name)
# T1 construct: expressed in transfected cells
# T1 sequence (P58418 1-232 N48K): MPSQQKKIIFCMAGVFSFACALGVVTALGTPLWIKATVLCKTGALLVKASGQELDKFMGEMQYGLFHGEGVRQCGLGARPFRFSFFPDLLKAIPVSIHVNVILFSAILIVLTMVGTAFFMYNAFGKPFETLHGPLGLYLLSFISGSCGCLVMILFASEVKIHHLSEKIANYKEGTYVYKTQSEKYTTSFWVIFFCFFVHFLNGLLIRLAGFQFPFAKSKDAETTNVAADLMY
# Experimental: Assay Method Showing Activity of Compounds of the Invention that Restore Expression of N48K Clarin-1 (24 hour incubation)
# (§1) Clarin-1 is the protein encoded by the gene mutated in Usher III Syndrome (Adato et al., 2002). The most prevalent mutation in Clarin-1 in North America is N48K, which is reported to cause loss of glycosylation and a trafficking defect (Tian et al., 2009). […] Thus it is believed that restoring the trafficking of N48K Clarin-1 to the cell surface provides an avenue of intervention for Usher III Sydrome.
# (§2) In a typical experiment, these cells were seeded on collagen-coated 96-well plates at a cell density of 20,000 cells per well in Dulbecco's Modified Eagle Medium (DMEM) contain 10% fetal bovine serum in a humidified incubator at 37° C., 5% CO2. After an overnight incubation, compounds were added for a 24 hr incubation in DMEM medium contain 10% fetal bovine serum in a humidified incubator at 37° C., 5% CO2. As a negative control, DMSO was used at 0.25% final concentrations. Compounds were typically tested in triplicate fashion. After the 24 hr incubation with compounds, the cells were fixed by the addition of 10% buffered formalin to the wells to achieve a final concentration of 4% formalin. After a 20 min fixation at room temperature, wells were washed three times with phosphate-buffered saline (PBS) containing Triton X-100 (0.02 phosphate, 150 mM NaCl, 0.1% Triton X-100).
# (§3) The HA-tagged N48K Clarin-1 was detected with an antibody against the HA tag (HA.11 Clone 16B12 Monoclonal antibody, Covance #MMS-101P) at a dilution of 1:1000 in PBS containing Triton X-100. After a 90 min incubation, wells were washed three times with PBS containing Triton X-100, and a secondary antibody (Goat anti-mouse IgG-Cy3 (1.5 mg/ml), Jackson IR Europe #115165003) was added to the wells at a dilution of 1:250 in PBS containing Triton X-100 for 45 min. Wells were subsequently washed three times with PBS containing Triton X-100, and a final staining for nuclei was performed by the addition of DAPI (4′,6-diamidino-2-phenylindole) at a dilution of 1:10,000. The imaging of the stained cells was performed on an InCell 1000 High Content Imager (GE Healthcare), reading out the Cy3 channel for N48K Clarin-1 and the DAPI channel for nuclei. The images were analyzed and quantitated using a specific algorithm. This algorithm measured the HA-Clarin-1 staining for each cell based on the additional nuclear segmentation of the DAPI signal (FIG. 1). This algorithm measured the intensity per cell, and thus it is less sensitive for variation in cell number. Per well, approximately 2,000 cells were measured to achieve an average density per cell measurement. FIG. 1 illustrates high content analysis. DAPI-stained nuclei are used to perform segmentation of the image into individual cells. The density observed in the N48K Clarin-1 channel (Cy3) is then calculated per cell averaged over a field.
# [2] = target: T1, N48K Clarin-1; test: Restoration of expression of N48K Clarin-1, 2 hour incubation then 22 hr fresh medium (high content imaging of HA-tagged N48K Clarin-1); type: cell-based; conditions: HEK293-Clarin-1 N48K-HA D9 cell line, 2 hr incubation with compound, then 22 hr in fresh medium
# Experimental: An Assay Method Showing Activity of Compounds of the Invention that Restore Expression of N48K Clarin-1(2 hour incubation)
# as §1
# as §2, with “for a 2 hr incubation” for “for a 24 hr incubation”, “After the 2 hr incubation” for “After the 24 hr incubation”, “cells were incubated in fresh medium for 22 hr. The cells were then fixed by” for “cells were fixed by”
# as §3, with “images are” for “images were”, “measurement.” for “measurement. FIG. 1 illustrates high content analysis. DAPI-stained nuclei are used to perform segmentation of the image into individual cells. The density observed in the N48K Clarin-1 channel (Cy3) is then calculated per cell averaged over a field.”
SMILES,EC50 [1] [µM],IC50 [2] [µM]
"Cn1cncc1Cn1nc(-c2ccccc2)c2c(Cl)c(-c3ccccc3)nnc21 [IIa, 4-chloro-1-[(3-methylimidazol-4-yl)methyl]-3,5-diphenyl-pyrazolo[3,4-c]pyridazine]",≤ 2,4 to 8
"Clc1c(-c2ccccc2)nnc2c1c(-c1ccccc1)nn2CCn1ccnc1 [IIc, 4-chloro-1-(2-imidazol-1-ylethyl)-3,5-diphenyl-pyrazolo[3,4-c]pyridazine]",≤ 2,≤ 4
"CC1(Cn2nc(-c3ccccc3)c3c(Cl)c(-c4ccccc4)nnc32)COC1 [IIf, 4-chloro-1-[(3-methyloxetan-3-yl)methyl]-3,5-diphenyl-pyrazolo[3,4-c]pyridazine]",≤ 2,≤ 4
"Cn1cc(Cn2nc(-c3ccccc3)c3c(Cl)c(-c4ccccc4)nnc32)cn1 [IIg, 4-chloro-1-[(1-methylpyrazol-4-yl)methyl]-3,5-diphenyl-pyrazolo[3,4-c]pyridazine]",≤ 2,≤ 4
"FCCn1nc(-c2ccccc2)c2c(Cl)c(-c3ccccc3)nnc21 [IIl, 4-chloro-1-(2-fluoroethyl)-3,5-diphenyl-pyrazolo[3,4-c]pyridazine]",≤ 2,≤ 4
"Clc1c(-c2ccccc2)nnc2c1c(-c1ccccc1)nn2Cc1cccnc1 [IIn, 4-chloro-3,5-diphenyl-1-(3-pyridylmethyl)pyrazolo[3,4-c]pyridazine]",≤ 2,≤ 4
"CN1CCN(CCn2nc(-c3cnn(C)c3)c3c(Cl)c(-c4ccccc4)nnc32)CC1 [Ic, 4-chloro-3-(1-methyl-1H-pyrazol-4-yl)-1-(2-(4-methylpiperazin-1-yl)ethyl)-5-phenyl-1H-pyrazolo[3,4-c]pyridazine]",≤ 2,4 to 8
"COC/C=C/c1nn(CCN2CCN(C)CC2)c2nnc(-c3ccccc3)c(Cl)c12 [Ii, (E)-4-chloro-3-(3-methoxyprop-1-en-1-yl)-1-(2-(4-methylpiperazin-1-yl)ethyl)-5-phenyl-1H-pyrazolo[3,4-c]pyridazine]",≤ 2,≤ 4
"CN1CCN(CCn2nc(-c3ccc4c(c3)CCO4)c3c(Cl)c(-c4ccccc4)nnc32)CC1 [Il, 4-chloro-3-(2,3-dihydrobenzofuran-5-yl)-1-(2-(4-methylpiperazin-1-yl)ethyl)-5-phenyl-1H-pyrazolo[3,4-c]pyridazine]",≤ 2,≤ 4
"Clc1c(-c2ccccc2)nnc2c1c(-c1ccccc1)nn2CCn1cccn1 [XIVa, 4-chloro-3,5-diphenyl-1-(2-pyrazol-1-ylethyl)pyrazolo[3,4-c]pyridazine]",–,≤ 4

# Continued, values first:
EC50 [1] [µM],IC50 [2] [µM],SMILES
≤ 2,≤ 4,"O=C1CCCN1CCn1nc(-c2ccccc2)c2c(Cl)c(-c3ccccc3)nnc21 [IIb, 1-[2-(4-chloro-3,5-diphenyl-pyrazolo[3,4-c]pyridazin-1-yl)ethyl]pyrrolidin-2-one]"
≤ 2,≤ 4,"Clc1c(-c2ccccc2)nnc2c1c(-c1ccccc1)nn2Cc1cocn1 [IIh, 4-[(4-chloro-3,5-diphenyl-pyrazolo[3,4-c]pyridazin-1-yl)methyl]oxazole]"
≤ 2,≤ 4,"Clc1c(-c2ccccc2)nnc2c1c(-c1ccccc1)nn2C[C@H]1CCCO1 [IIj, 4-chloro-3,5-diphenyl-1-[[(2R)-tetrahydrofuran-2-yl]methyl]pyrazolo[3,4-c]pyridazine]"
≤ 2,≤ 4,"CS(=O)(=O)CCn1nc(-c2ccccc2)c2c(Cl)c(-c3ccccc3)nnc21 [IIq, 4-chloro-1-(2-methylsulfonylethyl)-3,5-diphenyl-pyrazolo[3,4-c]pyridazine]"
≤ 2,≤ 4,"Fc1cccc(-c2nn(CCn3ccnc3)c3nnc(-c4ccccc4)c(Cl)c23)c1 [IIs, 4-chloro-3-(3-fluorophenyl)-1-(2-imidazol-1-ylethyl)-5-phenyl-pyrazolo[3,4-c]pyridazine]"
≤ 2,≤ 4,"CN1CCN(CCn2nc(-c3cccn3C)c3c(Cl)c(-c4ccccc4)nnc32)CC1 [Ik, 4-chloro-3-(1-methyl-1H-pyrrol-2-yl)-1-(2-(4-methylpiperazin-1-yl)ethyl)-5-phenyl-1H-pyrazolo[3,4-c]pyridazine]"
